The values below come from patent US7217794B2, “Compounds and methods for treatment of thrombosis” (Daiamed, Inc., priority 2003, dated 2007).

Like-named read-outs stand apart in the source and are kept apart here.

For one assay, the target named is T1, native Factor XIa (Homo sapiens, UniProt P03951).
T1 construct: cleavage generates the same light chain segment as is found for human Factor XIa protein; purchased Haematological Associates FXIA01
Briefly: Factor XIa enzyme inhibition assay (fluorogenic substrate pyroGlu-Pro-Arg-AMC). The class given is biochemical. Here is the method: Potential inhibitors of Factor XIa were evaluated using a modification of the above assay. […] This substrate had the p-nitroanaline group replaced with 7-methylaminocoumarin (AMC). […] Inhibitors were tested by serial dilution over an appropriate range to yield a dose response curve for determination of the inhibitors' IC50 values. The assay mixture was incubated for 30 minutes at 30° C., and the fluorescent yield was measured using a PE-Wallac Victor 2 Plate Reader. Dose response curves were fit to Equation 1 in which A is the maximum inhibition, B is the minimum inhibition, C is the IC50, and D is the Hill coefficient.
Potential inhibitors of Factor XIa were evaluated using the following assay. […] This substrate had the p-nitroanaline group replaced with 7-methylaminocoumarin (AMC).
Inhibitors were tested by serial dilution over an appropriate range to yield a dose response curve for determination of the inhibitors' IC50 value. The assay mixture was incubated for 30 minutes at 30° C., and the fluorescent yield measured using a PE-Wallac VICTOR2™ Plate Reader. Dose response curves were fit to equation 1 below in which A is the maximum inhibition, B is the minimum inhibition, C is the IC50, and D is the Hill coefficient.

In a further assay the target is Factor Xa (Homo sapiens, UniProt P00742). As to the kind of experiment: Factor Xa enzyme inhibition assay (purified enzyme). The class given is biochemical.
Factor Xa, sequence (P00742 235-488 limits assumed): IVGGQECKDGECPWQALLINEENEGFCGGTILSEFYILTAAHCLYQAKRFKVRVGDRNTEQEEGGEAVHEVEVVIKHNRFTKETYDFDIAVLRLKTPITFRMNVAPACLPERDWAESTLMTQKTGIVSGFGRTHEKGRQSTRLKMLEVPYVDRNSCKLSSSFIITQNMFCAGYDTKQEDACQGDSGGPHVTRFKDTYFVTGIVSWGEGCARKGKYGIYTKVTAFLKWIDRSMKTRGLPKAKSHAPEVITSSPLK
Factor Xa, sequence (P00742 41-179 partner limits assumed): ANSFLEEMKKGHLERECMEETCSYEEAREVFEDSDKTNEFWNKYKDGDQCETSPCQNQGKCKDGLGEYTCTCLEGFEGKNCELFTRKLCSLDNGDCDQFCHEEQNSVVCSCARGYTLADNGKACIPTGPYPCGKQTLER
In another assay the target is thrombin (Homo sapiens, UniProt P00734). As to the kind of experiment: Thrombin enzyme inhibition assay (purified enzyme). The class given is biochemical.
The subject of the next assay is venous thrombosis. As to the kind of experiment: Rat venous thrombosis model (stenosis of inferior vena cava with hypotonic saline infusion). The class given is in vivo. Here is the method: Compound 22 was administered as a continuous intravenous infusion via the femoral vein commenced 15 minutes prior to the thrombotic challenge. Thrombus mass was assessed at 60 minutes following challenge. Results are expressed as the percentage of the vehicle mean.
Briefly, male Sprague-Dawley rats (300–400 g) were anesthetized using ketamine/xylazine I.M. A midline laparotomy was performed, and the vena cava was visualized and gently separated from the descending aorta using cotton swabs. Both iliolumbar veins were ligated with suture (3–0 silk). A loose ligature (3–0 silk) was placed around the vena cava distal to the renal veins. A 25G butterfly bent at a 90-degree angle and attached to a 5 cc syringe filled with 2.5 mL of hypotonic saline (0.225%) was inserted into the vena cava at the level of the iliolumbar veins and glued into place using VETBOND™. A 26G needle bent to a 90-degree angle was then tied tightly to the vena cava, using the loose ligature. An atraumatic clamp was placed on the vena cava proximal to the iliac bifurcation, and the hypotonic saline manually infused at a rate of 10 mL/minutes. The atraumatic clamp was removed, along with the 26G needle, creating a 26G stenosis. Organs were carefully replaced, and animals were kept normothermic until sacrifice. Animals were sacrificed by anesthetic overdose at 10 or 60 minutes post thrombus induction. Following sacrifice, the vena cava was isolated using hemostats, and the clot(s) was dissected out. Clots were removed, blotted on gauze, and then immediately weighed using an analytical balance.
Compounds under investigation along with vehicles and positive controls (heparin, enoxaparin) were administered intravenously via a catheter (PE-50 tubing) implanted in the jugular or femoral vein. In some studies, rats were administered a bolus of the test article (4 mL/kg) via the venous catheter immediately prior to initiation of intravenous infusion (4 mL/kg/h). The rats were subjected to the challenge 15 minutes post bolus/infusion initiation. All test article infusions continued to the end of the study period.
Administration of compound XLXI commenced 15 minutes prior to thrombotic challenge, with determination of thrombus mass at 60 minutes post challenge.

In another assay the test system is rat Factor XIa. As to the kind of experiment: Inhibition of rat Factor XIa compared with native human Factor XIa. The class given is biochemical. The conditions noted are these: rat Factor XIa vs native human Factor XIa.
Where [1] appears, read: Table 12, compounds of formula I (R^0 is 2-thiazole), read-out: FXIa IC50.
[2] abbreviates: Table 12, read-out: Thrombin IC50.

T1 sequence (P03951 388-625 limits assumed): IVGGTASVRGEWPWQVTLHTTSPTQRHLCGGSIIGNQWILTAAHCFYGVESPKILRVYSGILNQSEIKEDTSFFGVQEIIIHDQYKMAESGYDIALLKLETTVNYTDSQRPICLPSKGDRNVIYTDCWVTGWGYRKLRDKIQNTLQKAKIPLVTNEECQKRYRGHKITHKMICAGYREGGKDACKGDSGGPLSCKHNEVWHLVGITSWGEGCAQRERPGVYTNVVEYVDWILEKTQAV
T1 sequence (P03951 19-387 partner limits assumed): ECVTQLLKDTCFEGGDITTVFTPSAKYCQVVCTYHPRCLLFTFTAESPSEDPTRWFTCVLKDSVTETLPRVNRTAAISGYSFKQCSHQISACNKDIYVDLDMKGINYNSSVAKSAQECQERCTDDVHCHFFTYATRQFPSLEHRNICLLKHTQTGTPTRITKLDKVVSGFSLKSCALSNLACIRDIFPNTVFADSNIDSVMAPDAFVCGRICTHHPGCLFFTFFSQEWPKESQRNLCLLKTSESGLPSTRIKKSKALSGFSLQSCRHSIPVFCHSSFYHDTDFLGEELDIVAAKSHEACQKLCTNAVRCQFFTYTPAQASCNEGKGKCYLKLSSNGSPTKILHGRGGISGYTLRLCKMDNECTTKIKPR

On to `CC(C)C(NC(=O)C(O)c1cccc(Cl)c1)C(=O)NC(CCCNC(=N)N)C(=O)c1nccs1` (stereo not shown), for which the IC50 at native Factor XIa (setting [1]) worked out at 0.116 µM; on Factor Xa (Table 12, read-out: FXa IC50), 2.36 µM; at thrombin (setting [2]), 0.225 µM.

In the case of `CC(C)C(NC(=O)C(O)c1ccccc1)C(=O)NC(CCCNC(=N)N)C(=O)c1nccs1` (stereo not shown), the IC50 came to 1.19 µM on Factor Xa (Table 12, read-out: FXa IC50) and 0.253 µM at thrombin (setting [2]).

For `COC(=O)c1cccc(CS(=O)(=O)NC(C(=O)NC(CC(C)C)C(=O)NC(CCCNC(=N)N)C(=O)c2nccs2)C2CCCCC2)c1` (stereo not shown), the IC50 is 0.005 µM on native Factor XIa (setting [1]); 0.031 µM on Factor Xa (Table 12, read-out: FXa IC50); 0.02 µM at thrombin (setting [2]).

As to `CC(C)CC(NC(=O)NCc1ccc(Cl)c(Cl)c1)C(=O)NC(C(=O)NC(CCCNC(=N)N)C(=O)c1nccs1)C(C)C` (stereo not shown), the 50% inhibitory concentration (IC50) on native Factor XIa came out at 0.064 µM; on Factor Xa (Table 12, read-out: FXa IC50), 20 µM; on thrombin (setting [2]) it was 0.615 µM.

In the case of `CCC(C)C(NC(=O)C(CC(C)C)NC(=O)NCc1ccc(Cl)c(Cl)c1)C(=O)NC(CCCNC(=N)N)C(=O)c1nccs1` (stereo not shown), the results for the IC50 against native Factor XIa, against Factor Xa and against thrombin were 0.078 µM, 84.9 µM and 2.65 µM, respectively.

Consider `CC(C)[C@H](NC(=O)[C@H](Cc1cccnc1)NC(=O)N[C@H](C)c1ccc(Br)cc1)C(=O)N[C@@H](CCCNC(=N)N)C(=O)c1nccs1` [Compound 22], for which, in the assay on venous thrombosis (continuous intravenous administration begun 15 minutes before thrombotic challenge, thrombus mass at 60 minutes post challenge), the “effect on thrombus formation” value is “suppressed the thrombus formation”. The “total dose exposure at which efficacy was observed” value in the assay with venous thrombosis (continuous intravenous infusion, thrombus mass at 60 minutes post challenge) is recorded as 1.4 mg/kg. The “efficacy in rat model of venous thrombosis” value in the assay on venous thrombosis (intravenous) is given as “statistically significant efficacy”. In addition, the “change in thrombus size at the higher dose” value in the assay on venous thrombosis (total dose exposure 4.0 mg/kg compared with 1.4 mg/kg) was “no further decrease in thrombus size”. The “specificity for rat Factor XIa relative to native human Factor XIa (fold less)” value in the assay with rat Factor XIa worked out at 11 fold.

Usually IC50 stands for the point on the concentration scale where inhibition reaches its midpoint.
